We go through eleven compounds from ChEMBL document CHEMBL1201862, “PubChem BioAssay data set” (2004).

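Assay format: 96-well plates, 48-hour exposure. GI50 marks 50% less growth.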 Calls of active or inactive are those of the source. No stated cut-off is given here; in the data, active = GI50 up to about 1.1 µM and inactive = higher.

Test systems include CAKI-1; DU-145; EKVX; HCT-116; HCT-15; HL-60; HT-29; Hs-578T; K562; LOX IMVI; Malme-3M; NCI-H460; RPMI-8226; SF-268; SF-295; SK-MEL-5; SN12C; UACC-62; HOP-62; MDA-N.
Common to all, as to assay: NCI anticancer screen, dose series, 48 h

With `CC(=O)OCc1cc2c(s1)C(=O)c1sccc1C2=O`, the GI50 in the assay on CAKI-1 was 1.84 µM (inactive); in the assay on DU-145, 0.0336 µM (active); in the assay on EKVX it was 0.197 µM (active); with HCT-116, 1.74 µM (inactive); in the assay with HCT-15, 0.156 µM; in the assay with HL-60, 0.29 µM (active). Further, the GI50 in the assay on HT-29 is 0.65 µM (active); with Hs-578T, 0.157 µM (active); with K562, 0.277 µM (active); with LOX IMVI it was < 0.0182 µM (active); in the assay on Malme-3M, 0.272 µM (active); in the assay with NCI-H460, 0.175 µM (active). Moreover, the GI50 is 0.239 µM (active) with RPMI-8226; 0.154 µM (active) in the assay on SF-268; 0.0541 µM (active) with SF-295; 0.0426 µM (active) in the assay on SK-MEL-5; 0.13 µM (active) in the assay on SN12C; 0.166 µM (active) in the assay with UACC-62.
Regarding `O=C1Cc2cc3ccccc3nc2-c2ccccc2N1`, the GI50 is 32.7 µM (inactive) in the assay on CAKI-1; 79.6 µM (inactive) in the assay with DU-145; 67 µM (inactive) in the assay with EKVX; 23.9 µM (inactive) in the assay with HCT-116; 96.6 µM in the assay on HCT-15; > 100 µM (inactive) with HL-60. Further, the GI50 with HOP-62 is 56 µM (inactive); in the assay on HT-29, 55.1 µM (inactive); in the assay with Hs-578T, 28.8 µM (inactive); in the assay on K562, 39.9 µM (inactive); with LOX IMVI it was 38.6 µM (inactive); in the assay on Malme-3M, > 100 µM (inactive). In addition, the GI50 is 63.7 µM (inactive) in the assay on NCI-H460; 81.5 µM (inactive) with SF-268; 85.5 µM (inactive) in the assay on SF-295; > 100 µM (inactive) in the assay on SK-MEL-5; > 100 µM (inactive) in the assay with SN12C; > 100 µM (inactive) in the assay with UACC-62.
As for `N#Cc1cc2c(cc1Cl)Sc1nnc(Nc3ccccc3)n1S2(=O)=O`, the GI50 with CAKI-1 is 1.72 µM (inactive); in the assay with DU-145, 2.01 µM (inactive); in the assay with EKVX, 2.77 µM (inactive); in the assay with HCT-116, 2.04 µM (inactive); in the assay on HCT-15 it was 2.08 µM; in the assay on HL-60, 3.05 µM (inactive). Further, the GI50 was 1.57 µM (inactive) with HOP-62; 2.12 µM (inactive) in the assay on HT-29; 2.3 µM (inactive) in the assay on Hs-578T; 1.44 µM (inactive) in the assay on K562; 1.73 µM (inactive) in the assay on LOX IMVI; 2.19 µM (inactive) in the assay with Malme-3M. The GI50 was 2.71 µM (inactive) in the assay on NCI-H460; 0.692 µM (active) in the assay with RPMI-8226; 2.82 µM (inactive) with SF-268; 3 µM (inactive) in the assay with SF-295; 2.43 µM (inactive) in the assay on SK-MEL-5; 1.71 µM (inactive) with SN12C. For the same compound, in the assay with UACC-62, the GI50 was 1.83 µM (inactive).
For `CC(C)Cn1cnc2c(Sc3c([N+](=O)[O-])ncn3C)nc(N)nc21`, the GI50 in the assay on CAKI-1 was 22.8 µM (inactive); in the assay with DU-145, 28.5 µM (inactive); in the assay with EKVX it was > 50.8 µM (inactive); with HCT-116 it was > 60.1 µM (inactive); in the assay with HCT-15, greater than 59.8 µM; with HL-60, 30.3 µM (inactive). For the same compound, the GI50 with HOP-62 was > 80.4 µM (inactive); in the assay with HT-29, > 100 µM (inactive); in the assay with K562, > 47.3 µM (inactive); in the assay on LOX IMVI it was > 59.8 µM (inactive); with MDA-N, 36.1 µM (inactive); with Malme-3M it was 30.8 µM (inactive). In addition, the GI50 in the assay on NCI-H460 is > 63 µM (inactive); in the assay on RPMI-8226, > 52.7 µM (inactive); with SF-268, > 100 µM (inactive); in the assay with SF-295 it was > 100 µM (inactive); in the assay on SK-MEL-5 it was 15.2 µM (inactive); in the assay with SN12C, > 64.6 µM (inactive). The GI50 with UACC-62 was > 50.2 µM (inactive).
With `O=C1OC2(c3ccccc31)c1cc(I)c(O)c(I)c1Oc1c2cc(I)c(O)c1I` [ERYTHROSINE], the GI50 in the assay on CAKI-1 is 14.6 µM (inactive); with DU-145 it was > 100 µM (inactive); with EKVX it was > 100 µM (inactive); in the assay with HCT-116 it was 72.4 µM (inactive); with HCT-15, 31.3 µM; in the assay on HOP-62 it was > 100 µM (inactive). Also, the GI50 with HT-29 is > 100 µM (inactive); in the assay with Hs-578T, 49.1 µM (inactive); with K562 it was > 100 µM (inactive); in the assay with LOX IMVI, 76.6 µM (inactive); in the assay on Malme-3M it was 64.1 µM (inactive); in the assay with NCI-H460, > 100 µM (inactive). Besides, the GI50 is > 100 µM (inactive) in the assay on RPMI-8226; > 100 µM (inactive) with SF-268; > 100 µM (inactive) in the assay on SF-295; > 100 µM (inactive) in the assay with SK-MEL-5; > 100 µM (inactive) with SN12C; 75.9 µM (inactive) in the assay with UACC-62.
Take `Cc1oc2nc(N(C)C)nc(NN)c2c1C`: the GI50 in the assay on CAKI-1 is > 100 µM (inactive); with DU-145, > 100 µM (inactive); with EKVX it was > 100 µM (inactive); with HCT-116, > 100 µM (inactive); with HCT-15, greater than 100 µM; in the assay with HL-60, > 100 µM (inactive). Further, the GI50 with HOP-62, in the assay on HT-29, in the assay on Hs-578T, with K562, with NCI-H460 and with RPMI-8226 was > 100 µM (inactive) in each case. Besides, the GI50 in the assay with SF-268, in the assay with SF-295, with SK-MEL-5, in the assay on SN12C and in the assay on UACC-62 was > 100 µM (inactive) each time.
In the case of `CCCCCCCCCc1cccc(N2C(N)=NC(N)=NC2(C)C)c1`, the GI50 in the assay on CAKI-1 was 0.293 µM (active); in the assay with DU-145, < 0.0307 µM (active); in the assay with EKVX, < 0.0329 µM (active); with HCT-116, < 0.01 µM (active); with HCT-15, less than 0.01 µM; in the assay on HL-60, < 0.01 µM (active). Moreover, the GI50 with HOP-62 was < 0.0237 µM (active); in the assay on HT-29 it was < 0.01 µM (active); in the assay on Hs-578T, 1.04 µM (active); in the assay with K562 it was < 0.01 µM (active); in the assay on LOX IMVI, < 0.01 µM (active); with Malme-3M, 0.104 µM (active). The GI50 with NCI-H460 is < 0.01 µM (active); in the assay with RPMI-8226 it was 0.0112 µM (active); in the assay on SF-268 it was < 0.023 µM (active); in the assay with SF-295, 0.0148 µM (active); in the assay on SK-MEL-5 it was 0.0277 µM (active); in the assay with SN12C it was 0.0198 µM (active). Further, the GI50 with UACC-62 is < 0.01 µM (active).
As for `CC(=O)[C@@]1(C)CC2(CCN(C)CC2)OC1C` (stereo partly drawn), the GI50 with CAKI-1 was > 100 µM (inactive); in the assay on DU-145, > 100 µM (inactive); in the assay on EKVX, > 100 µM (inactive); in the assay with HCT-116, > 100 µM (inactive); in the assay on HCT-15 it was greater than 100 µM; in the assay on HOP-62, > 100 µM (inactive). The GI50 with HT-29, with K562, with LOX IMVI, with MDA-N, in the assay on Malme-3M and in the assay with NCI-H460 was > 100 µM (inactive) each time. For the same compound, the GI50 in the assay on RPMI-8226, in the assay on SF-268, in the assay with SF-295, in the assay on SK-MEL-5 and with SN12C was > 100 µM (inactive) in each case.
With `CCNCCC1(CC)C(=O)NC(=O)NC1=O`, the GI50 is > 100 µM (inactive) in the assay on CAKI-1; > 100 µM (inactive) in the assay on DU-145; > 100 µM (inactive) with EKVX; > 100 µM (inactive) with HCT-116; greater than 100 µM in the assay with HCT-15; 0.0288 µM (active) with HL-60. Also, the GI50 in the assay with HOP-62, with HT-29, in the assay with Hs-578T, with K562, with LOX IMVI and with Malme-3M was > 100 µM (inactive) in each case. For the same compound, the GI50 in the assay with NCI-H460, with RPMI-8226, with SF-268, with SF-295, in the assay on SK-MEL-5 and in the assay with SN12C was > 100 µM (inactive) throughout. For the same compound, in the assay with UACC-62, the GI50 is > 100 µM (inactive).
`CN1c2ccccc2C2c3c(O)ccc(O)c3C=C([N+](=O)[O-])C21` (stereo not drawn): the GI50 in the assay with CAKI-1 is 2.13 µM (inactive); in the assay with DU-145, 1.44 µM (inactive); in the assay on EKVX it was 1.67 µM (inactive); in the assay with HCT-116, 0.205 µM (active); in the assay with HCT-15, 1.08 µM; in the assay with HL-60, 0.684 µM (active). Moreover, the GI50 is 2.11 µM (inactive) in the assay on HOP-62; 0.136 µM (active) in the assay on HT-29; 0.497 µM (active) with K562; 0.407 µM (active) in the assay with LOX IMVI; 0.69 µM (active) with MDA-N; 1.9 µM (inactive) in the assay on NCI-H460. Further, the GI50 in the assay with RPMI-8226 was 1.11 µM (active); with SF-268, 0.388 µM (active); in the assay on SF-295, 2.53 µM (inactive); in the assay with SK-MEL-5 it was 0.548 µM (active); in the assay with SN12C, 0.312 µM (active); in the assay on UACC-62, 0.957 µM (active).
`C=CCC1(O)CC(n2cc(C)c(=O)[nH]c2=O)OC1CO[Si](C)(C)C(C)(C)C` (stereo not drawn): the GI50 with CAKI-1 is 54.6 µM (inactive); in the assay on DU-145 it was 45.8 µM (inactive); with EKVX it was 36.7 µM (inactive); with HCT-116, 42 µM (inactive); in the assay on HCT-15 it was 44.4 µM; in the assay on HOP-62, > 100 µM (inactive). For the same compound, the GI50 in the assay with HT-29 was 40.9 µM (inactive); with K562, 61.4 µM (inactive); with LOX IMVI, 31.2 µM (inactive); with MDA-N, 51.6 µM (inactive); in the assay on NCI-H460 it was 38.7 µM (inactive); with RPMI-8226, 37.4 µM (inactive). Further, the GI50 with SF-295 was 42.9 µM (inactive); in the assay with SK-MEL-5, 34.4 µM (inactive); in the assay on SN12C, 31.6 µM (inactive); in the assay on UACC-62 it was 35.9 µM (inactive).
